In patent US20100047332A1, “Treatments for burns using thyroid hormone compound in a human” (priority 2005, published 2010):

Tests used:
TSH [1] = conditions: cited from earlier work
[2] = system: cellulite and subcutaneous fat; assay: TriAc cream before exercise for cellulite; assay type: in vivo, human; conditions: after twelve applications
Method: TriAc-containing creams were produced by dissolving TriAc in a suitable solvent and adding it to a cream base. […] TriAc could also be added to the oil phase of a water in oil or a oil in water cream base, or charged in a solid lipid nanoparticle, or applied as a liposome, or a matrix patch as is known in the art.
The cream was only applied before exercise. More specifically, application occurred between 30 minutes and 2 hours before mild exercise. The mild exercise involved the underlying musculature, and included long walks, jogging, or gym exercises involving light resistance exercises, or stairmasters, treadmills and the like.
The amount of cream applied was always less than 5 ml, just sufficient to cover the area, usually less than 2 ml. […] For most of the applications, the amount of cream applied was less than 3 ml and usually less than 1.5 ml. In these applications, less than 0.4 mg was applied and as little as 80 μg was applied in at least some of the applications. Exercise occurred one to three times a week. Consequently, the cream was only applied one to three times a week. Two grams of cream, approximately 2 mls, was sufficient to cover the buttocks, back of thighs, and anterior waist area.

TSH [3] = conditions: topically applied, humans; cited from earlier work
[4] = system: thyroid hormone receptor TRα or β; conditions: cited from earlier work
[5] = system: deep dermal pressure ulcer; assay: TriAc cream on a deep dermal pressure ulcer; assay type: in vivo, human
Source text: The patient was a active triathlete who had developed a bicycle seat ulcer which was a persistent fissure running from coccyx almost to the anus. The deep dermal pressure ulcer resulted from pressure due to a bicycle seat. This pressure injury frequently was oozing and was generally moist. The fissure was 1-2 mm wide and 2-3 mm deep. It was resistant to a variety of over the counter steroid and anti-fungal creams and lanolin. […] The cream was applied for 4 treatments on an every other day basis, using barely enough to treat the area about 20 cm^2, sometimes every third day. […] Skin has remained intact for close to 6 months. The dermal ulcer in this example was non healing until the cream was used on an intermittent basis

## O=C(O)Cc1cc(I)c(Oc2ccc(O)c(I)c2)c(I)c1 [TriAc, [4-(4-hydroxy-3-iodophenoxy)-3,5-diiodophenyl]acetic acid]
TSH [1]; 350 ug oral, over a few hour time period
  transient change of TSH levels: 30%
TSH [1]; oral, human
  minimum oral dosage which transiently changes TSH levels: 350 µg
[2]; 8 to 16 mg TriAc per 100 ml, before exercise
  cellulite: little evidence of cellulite remained
[2]
  contour of the buttocks: smaller and smoother
TSH [3]
  effect on TSH levels or other thyroid hormone function tests: no effect on TSH levels
[4]
  potency as thyroid hormone agonist: potency about that of T-3
  selectivity in binding: slightly Beta selective
[5]; 0.006% cream, 4 treatments every other day, over the next few weeks
  healing of the ulcer: substantial healing
[5]; after treatment with 0.006% cream
  time skin has remained intact: ~6 months
